Measured values from patent publication US12398098B2, “Waterborne crosslinker composition” (priority 2020, dated 2025).
Read-outs that look alike come from different tables or passages of the source.

Experiments:
[1] = test system: mouse embryonic stem (mES) reporter cell lines
Rtkn [2] = details: mouse
Rtkn [3] = assay: ToxTracker genotoxicity assay, Rtkn-GFP reporter
Bscl2 = assay: ToxTracker genotoxicity assay, Bscl2-GFP reporter
[4] = With S9 rat liver extract, at 25% cytotoxicity, 3 h exposure and 24 h recovery
[5] = With S9 rat liver extract, at 50% cytotoxicity, 3 h exposure and 24 h recovery
[6] = Without S9 rat liver extract, at 10% cytotoxicity, 24 h exposure
[7] = Without S9 rat liver extract, at 25% cytotoxicity, 24 h exposure
[8] = Without S9 rat liver extract, at 50% cytotoxicity, 24 h exposure
[9] = With S9 rat liver extract, at 10% cytotoxicity, 3 h exposure and 24 h recovery
[10] = Bscl2 and Rtkn, absence and presence of S9

| SMILES | Genotoxicity test result (overall) [1] | Rtkn GFP reporter induction level (Rtkn [2]) | Rtkn GFP reporter induction level (Rtkn [3]; [4]) | Rtkn GFP reporter induction level (Rtkn [3]; [5]) | Rtkn GFP reporter induction level (Rtkn [3]; [6]) | Rtkn GFP reporter induction level (Rtkn [3]; [7]) | Rtkn GFP reporter induction level (Rtkn [3]; [8]) | Bscl 2 GFP reporter induction level (Bscl2; [5]) | Rtkn GFP reporter induction level (Rtkn [3]; [9]) | Bscl 2 GFP reporter induction level (Bscl2; [9]) | Bscl 2 GFP reporter induction level (Bscl2; [4]) | Bscl 2 GFP reporter induction level (Bscl2; [6]) | Bscl 2 GFP reporter induction level (Bscl2; [7]) | Bscl 2 GFP reporter induction level (Bscl2; [8]) | Genotoxicity test result (overall) [1, 10] |
| --- | --- | --- | --- | --- | --- | --- | --- | --- | --- | --- | --- | --- | --- | --- | --- |
| CCC(COC(=O)CCN1CC1C)(COC(=O)CCN1CC1C)COC(=O)CCN1CC1C (centres unmarked) [Comp. Ex. 1, trimethylolpropane tris(2-methyl aziridinepropionate), reference compound] | genotoxic |  |  |  |  |  |  |  |  |  |  |  |  |  |  |
| CCCCOCC(CN1CC1C)OC(=O)NCCCCCCn1c(=O)n(CCCCCCNC(=O)OC(COCCCC)CN2CC2C)c(=O)n(CCCCCCNC(=O)OC(COCCCC)CN2CC2C)c1=O (centres unmarked) [Composition 1] | non-genotoxic | 0.9 | 0.8 | 0.6 | 0.8 | 0.8 | 0.6 | 0.9 |  |  |  |  |  |  |  |
| CC(CN1CC1C)OC(=O)NCCCCCCn1c(=O)n(CCCCCCNC(=O)OC(C)CN2CC2C)c(=O)n(CCCCCCNC(=O)OC(C)CN2CC2C)c1=O (centres unmarked) [Composition 16] | non-genotoxic |  | 1.1 | 0.9 | 1.2 | 1.2 | 1.4 | 1.2 | 1.2 | 1.2 | 1.3 | 1.2 | 1.3 | 1.3 |  |
| CCCCC(CC)COCC(CN1CC1C)OC(=O)NCCCCCCn1c(=O)n(CCCCCCNC(=O)OC(COCC(CC)CCCC)CN2CC2C)c(=O)n(CCCCCCNC(=O)OC(COCC(CC)CCCC)CN2CC2C)c1=O (centres unmarked) [Composition 23] |  |  |  |  |  |  |  |  |  |  |  |  |  |  | non-genotoxic |
| CCCCCCCCCC(=O)OCC(CN1CC1C)OC(=O)NCCCCCCn1c(=O)n(CCCCCCNC(=O)OC(COC(=O)CCCCCCCCC)CN2CC2C)c(=O)n(CCCCCCNC(=O)OC(COC(=O)CCCCCCCCC)CN2CC2C)c1=O (centres unmarked) [Composition 25-2] |  |  | 1.1 | 1.2 | 1.1 | 1.2 | 1.0 | 1.1 | 1.1 | 1.0 | 1.1 | 1.1 | 1.2 | 1.0 | non-genotoxic |
| CCCCOCC(CN1CC1C)OC(=O)NCCCCCC/N=c1\oc(=O)n(CCCCCCNC(=O)OC(COCCCC)CN2CC2C)c(=O)n1CCCCCCNC(=O)OC(COCCCC)CN1CC1C (centres unmarked) [Composition 27] |  |  |  |  |  |  |  |  |  |  |  |  |  |  | non-genotoxic |
| CCCCOCC(CN1CC1(C)C)OC(=O)NCCCCCCn1c(=O)n(CCCCCCNC(=O)OC(COCCCC)CN2CC2(C)C)c(=O)n(CCCCCCNC(=O)OC(COCCCC)CN2CC2(C)C)c1=O (centres unmarked) [Compound. 15] | non-genotoxic |  | 1.2 | 1.3 | 1.2 | 1.2 | 1.2 | 1.1 | 1.2 | 1.1 | 1.1 | 1.2 | 1.2 | 1.1 |  |
